A word on the Ki: it is the dissociation constant of the complex between target and ligand, obtained from inhibition or displacement.

These results are taken from patent publication US10357481B2 (MERCK SHARP & DOHME CORP., priority 2015, dated 2019).

For this assay, the target named is T1, human PDE2A1 (Homo sapiens, UniProt O00408).
T1 construct: GST; purchased BPS Bioscience (San Diego, Calif.) 60020; host or cells: insect cells
Put plainly: IMAP FP PDE selectivity panel, human PDE2A1. It is filed as biochemical. Conditions: Lab B; read-out: Human PDE2 Ki (nM) Lab B. In outline: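 IMAP FP read-out, run at room temperature in parallel with PDE1–11: enzyme at 20% substrate conversion, 50 nM FAM-cAMP containing 1000 nM cGMP, Tris pH 7.2/MgCl2/DTT buffer. Compounds as ten 3-fold dilutions. Reaction 60 min, stopped with binding reagent for 1 h before polarization measurement.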

T1 sequence (O00408 1-920 isoform O00408-2): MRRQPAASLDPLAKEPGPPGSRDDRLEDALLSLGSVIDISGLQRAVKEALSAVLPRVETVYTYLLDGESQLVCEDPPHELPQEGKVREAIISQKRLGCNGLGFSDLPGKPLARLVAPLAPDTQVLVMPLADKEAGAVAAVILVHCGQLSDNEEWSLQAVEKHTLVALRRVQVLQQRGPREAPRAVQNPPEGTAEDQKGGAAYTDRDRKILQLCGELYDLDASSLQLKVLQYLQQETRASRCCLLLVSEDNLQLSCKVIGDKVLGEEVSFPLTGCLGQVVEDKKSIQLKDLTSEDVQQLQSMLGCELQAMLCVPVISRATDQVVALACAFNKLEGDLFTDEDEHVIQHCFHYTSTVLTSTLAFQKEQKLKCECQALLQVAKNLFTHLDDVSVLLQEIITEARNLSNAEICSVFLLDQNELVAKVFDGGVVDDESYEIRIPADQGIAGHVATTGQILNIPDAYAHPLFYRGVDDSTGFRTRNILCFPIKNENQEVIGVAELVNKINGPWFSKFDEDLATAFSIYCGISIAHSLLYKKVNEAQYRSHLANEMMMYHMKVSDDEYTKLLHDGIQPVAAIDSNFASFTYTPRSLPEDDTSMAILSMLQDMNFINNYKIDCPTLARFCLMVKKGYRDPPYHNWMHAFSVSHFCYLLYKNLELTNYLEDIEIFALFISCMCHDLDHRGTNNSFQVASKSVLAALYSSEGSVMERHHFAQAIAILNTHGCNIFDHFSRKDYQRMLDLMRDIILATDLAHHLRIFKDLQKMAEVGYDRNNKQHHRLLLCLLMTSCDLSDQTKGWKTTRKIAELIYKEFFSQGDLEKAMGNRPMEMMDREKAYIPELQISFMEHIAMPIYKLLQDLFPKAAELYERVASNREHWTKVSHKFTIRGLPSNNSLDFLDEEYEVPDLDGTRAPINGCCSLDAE

Regarding `CCCc1nc2nc(C)cc(N[C@@H](c3ccc(C(F)(F)F)c(F)c3)C(C)(C)C)n2n1` [Example 204, (R)-N-(1-(3-Fluoro-4-(trifluoromethyl)phenyl)-2,2-dimethylpropyl)-5-methyl-2-propyl-[1,2,4]triazolo [1,5-a]pyrimidin-7-amine], the Ki is 17 nM.

Consider `Cc1cc(N[C@@H](c2ccc(C(F)(F)F)c(F)c2)C(C)(C)C)n2nc(C3CC3)nc2n1` [Example 205, (R)-2-Cyclopropyl-N-(1-(3-fluoro-4-(trifluoromethyl)phenyl)-2,2-dimethylpropyl)-5-methyl-[1,2,4]triazolo [1,5-a]pyrimidin-7-amine], for which the inhibition constant Ki was 24 nM. The same measure for `Cc1cc(N[C@@H](c2ccc(C(F)(F)F)c(F)c2)C(C)(C)C)n2nc(CO)nc2n1` [Example 206, (R)-(7-(1-(3-Fluoro-4-(trifluoromethyl)phenyl)-2,2-dimethylpropylamino)-5-methyl-[1,2,4]triazolo [1,5-a]pyrimidin-2-yl)methanol]: 184 nM.

Consider `Cc1cc(N[C@@H](c2ccc(C(F)(F)F)c(F)c2)C(C)(C)C)n2nc(C(F)F)nc2n1` [Example 207, (R)-2-(Difluoromethyl)-N-(1-(3-fluoro-4-(trifluoromethyl)phenyl)-2,2-dimethylpropyl)-5-methyl-[1,2,4]triazolo [1,5-a]pyrimidin-7-amine], for which the Ki came out at 74 nM. On to `Fc1cc(C2(Nc3cc(Cl)nc4ncnn34)CC2)ccc1C(F)(F)F` [Example 208, 5-Chloro-N-(1-(3-fluoro-4-(trifluoromethyl)phenyl)cyclopropyl)-[1,2,4]triazolo [1,5-a]pyrimidin-7-amine], for which the Ki came out at 2.7 nM. Take `COc1cc(N[C@@H](c2ccc(C(F)(F)F)c(F)c2)C(C)(C)C)n2ncnc2n1` [Example 233, (R)—N-(1-(3-Fluoro-4-(trifluoromethyl)phenyl)-2,2-dimethylpropyl)-5-methoxy-[1,2,4]triazolo[1,5-a]pyrimidin-7-amine]: the Ki turned out to be 256 nM.

As for `CCOc1cc(N[C@@H](c2ccc(C(F)(F)F)c(F)c2)C(C)(C)C)n2ncnc2n1` [Example 234, (R)-5-Ethoxy-N-(1-(3-fluoro-4-(trifluoromethyl)phenyl)-2,2-dimethylpropyl)-[1,2,4]triazolo [1,5-a]pyrimidin-7-amine], the inhibitory constant (Ki) came out at 1230 nM. The same measure for `COc1cc(NC2(c3ccc(C(F)(F)F)c(F)c3)CC2)n2ncnc2n1` [Example 235, N-(1-(3-Fluoro-4-(trifluoromethyl)phenyl)cyclopropyl)-5-methoxy-[1,2,4]triazolo [1,5-a]pyrimidin-7-amine]: 18 nM. Turning to `CC(C)(C)[C@@H](Nc1cc(O)nc2ncnn12)c1ccc(C(F)(F)F)c(F)c1` [Example 238, (R)-7-(1-(3-Fluoro-4-(trifluoromethyl)phenyl)-2,2-dimethylpropylamino)-[1,2,4]triazolo[1,5-a]pyrimidin-5-ol], the inhibition constant Ki was 335 nM. The same measure for `CN(C)c1cc(NC2(c3ccc(C(F)(F)F)c(F)c3)CC2)n2ncnc2n1` [Example 239, N^7-(1-(3-Fluoro-4-(trifluoromethyl)phenyl)cyclopropyl)-N,N-dimethyl-[1,2,4]triazolo[1,5-a]pyrimidine-5,7-diamine]: 13 nM; for `CC(C)(C)[C@@H](Nc1cc(N)nc2ncnn12)c1ccc(C(F)(F)F)c(F)c1` [Example 240, (R)-N^7-(1-(3-Fluoro-4-(trifluoromethyl)phenyl)-2,2-dimethylpropyl)-[1,2,4]triazolo [1,5-a]pyrimidine-5,7-diamine]: 108 nM.

In the case of `CNc1cc(N[C@@H](c2ccc(C(F)(F)F)c(F)c2)C(C)(C)C)n2ncnc2n1` [Example 241, (R)-N^7-(1-(3-Fluoro-4-(trifluoromethyl)phenyl)-2,2-dimethylpropyl)-N^5-methyl-[1,2,4]triazolo [1,5-a]pyrimidine-5,7-diamine], the inhibition constant Ki is 375 nM.

Take `CN(C)c1cc(N[C@@H](c2ccc(C(F)(F)F)c(F)c2)C(C)(C)C)n2ncnc2n1` [Example 242, (R)-N^7-(1-(3-Fluoro-4-(trifluoromethyl)phenyl)-2,2-dimethylpropy1)-N^5,N^5-dimethyl-[1,2,4]triazolo [1,5-a]pyrimidine-5,7-diamine]: the Ki turned out to be 616 nM. For `OCCCc1cc(NC2(c3ccc(C(F)(F)F)c(F)c3)CC2)n2ncnc2n1` [Example 245, 3-(7-((1-(3-Fluoro-4-(trifluoromethyl)phenyl)cyclopropyl)amino)-[1,2,4]triazo[1,5-a]pyrimidin-5-yl)propan-1-ol], the Ki stood at 204 nM.

With `Cc1cc(N(C)C2(c3ccc(C(F)(F)F)c(F)c3)CC2)n2ncnc2n1` [Example 246], the Ki was found to be 46 nM. On to `Cc1cc(N[C@@H](c2ccc(C(F)(F)F)c(F)c2)C(C)(C)C)n2nc(CCCO)nc2n1` [Example 249, (R)-3-(7-(1-(3-Fluoro-4-(trifluoromethyl)phenyl)-2,2-dimethylpropylamino)-5-methyl-[1,2,4]triazolo[1,5-a]pyrimidin-2-yl)propan-1-ol], for which the inhibitory constant (Ki) was 40 nM.

For `Cc1cc(N[C@@H](c2ccc(C(F)(F)F)c(F)c2)C(C)(C)C)n2nc(CCO)nc2n1` [Example 250, (R)-2-(7-(1-(3-Fluoro-4-(trifluoromethyl)phenyl)-2,2-dimethylpropylamino)-5-methyl-[1.2.4]triazolo[1,5-a]pyrimidin-2-yl)ethanol], the inhibitory constant (Ki) was determined as 57 nM. As for `OCCc1cc(NC2(c3ccc(C(F)(F)F)c(F)c3)CC2)n2ncnc2n1` [Example 251, 2-(7-(1-(3-Fluoro-4-(trifluoromethyl)phenyl)cyclopropylamino)-[1,2,4]triazolo[1,5-a]pyrimidin-5-yl)ethanol], the figure is 140 nM; as for `Cc1cc(NC(c2ccc(C(F)(F)F)c(F)c2)C(C)(C)N)n2ncnc2n1` (stereo not drawn) [Example 252, 1-(3-Fluoro-4-(trifluoromethyl)phenyl)-2-methyl-N-(5-methyl-[1,2,4]triazolo[1,5-a]pyrimidin-7-yl)propane-1,2-diamine], 60 nM. The same measure for `Cc1cc(NC2(c3ccc(C(F)(F)F)c(F)c3)CC2)n2nc(N)nc2n1` [Example 255, N^7-{1-[3-Fluoro-4-(trifluoromethyl)phenyl]cyclopropyl}-5-methyl[1,2,4]triazolo[1,5-a]pyrimidine-2,7-diamine]: 22 nM.

On to `Cc1cc(NC2(c3ccc(C(F)(F)F)c(F)c3)CC2)n2nc(N(C)C)nc2n1` [Example 256, N^7-{1-[3-Fluoro-4-(trifluoromethyl)phenyl]cyclopropyl}-N^2,N^2,5-trimethyl[1,2,4]triazolo[1,5-a]pyrimidine-2,7-diamine], for which the Ki was 608 nM. `CNc1nc2nc(C)cc(NC3(c4ccc(C(F)(F)F)c(F)c4)CC3)n2n1` [Example 257, N^7-{1-[3-Fluoro-4-(trifluoromethyl)phenyl]cyclopropyl}-N^2,5-dimethyl[1,2,4]triazolo[1,5-a]pyrimidine-2,7-diamine]: the inhibition constant Ki came out at 10 nM. As for `C[C@@H](Nc1cnnc2ncnn12)c1ccc(S(F)(F)(F)(F)F)cc1` [Example 259, (R)—N-{1-[4-(Pentafluoro-λ^6-sulfanyl)phenyl]ethyl}-[1,2,4]triazolo[5,1-a][1,2,4]trizain-4-amine], the figure is 1430 nM. As for `Cc1cc(OC2(c3ccc(C(F)(F)F)cc3)CC2)n2ncnc2n1` [Example 262, 5-Methyl-7-({1-[4-(trifluoromethyl)phenyl]cyclopropyl}oxy)[1,2,4]triazolo[1,5-a]pyrimidine], the figure is 137 nM. On to `Cc1cc(NC2(c3ccc(C(F)(F)F)c(F)c3)CC2)n2ncnc2c1` [Example 263, N-(1-(3-Fluoro-4-(trifluoromethyl)phenyl)cyclopropyl)-7-methyl-[1,2,4]triazolo[1,5-a]pyridin-5-amine], for which the Ki worked out at 101 nM. The same measure for `Cc1cc(N[C@@H](c2ccc(C(F)(F)F)c(F)c2)C(C)(C)C)n2ncnc2c1` [Example 264, (R)—N-{1-[3-Fluoro-4-(trifluoromethyl)phenyl]-2,2-dimethylpropyl}-7-methyl-[1,2,4]triazolo[1,5-a]pyridin-5-amine]: 292 nM; for `Cc1cc(N[C@@H](c2ccc(C(F)(F)F)cc2)C(C)(C)O)n2ncnc2c1` [Example 265, (1S)-2-Methyl-1-[(7-methyl[1,2,4]triazolo[1,5-a]pyridin-5-yl)amino]-1-[4-(trifluoromethyl)phenyl]propan-2-ol]: 82 nM.

With `OCc1cc(NC2(c3ccc(C(F)(F)F)c(F)c3)CC2)n2ncnc2c1` [Example 266, (5-((1-(3-Fluoro-4-(trifluoromethyl)phenyl)cyclopropyl)amino)-[1,2,4]triazolo[1,5-a]pyridin-7-yl)methanol], the inhibition constant (Ki) amounted to 13 nM. The same measure for `C[C@@H](Nc1cc(CO)cc2ncnn12)c1ccc(C(F)(F)F)cc1` [Example 267, [5-({(1R)-1-[4-(Trifluoromethyl)phenyl]ethyl}amino)[1,2,4]triazolo[1,5-a]pyridin-7-yl] methanol]: 236 nM; for `C[C@H](Nc1cc(CO)cc2ncnn12)c1ccc(C(F)(F)F)cc1` [Example 268, [5-({(1S)-1-[4-(Trifluoromethyl)phenyl]ethyl}amino)[1,2,4]triazolo[1,5-a]pyridin-7-yl] methanol]: 2080 nM. Turning to `CC[C@@H](Nc1cc(CO)cc2ncnn12)c1ccc(C(F)(F)F)c(F)c1` [Example 269, [5-({(1R)-1-[3-Fluoro-4-(trifluoromethyl)phenyl]propyl}amino)[1,2,4]triazolo [1,5-a]pyridin-7-yl] methanol], the inhibitory constant (Ki) was determined as 181 nM. As for `OCc1cc(NC2(c3ccc(C(F)(F)F)cc3F)CC2)n2ncnc2c1` [Example 270, [5-({1-[2-Fluoro-4-(trifluoromethyl)phenyl]cyclopropyl}amino)[1,2,4]triazolo[1,5-a]pyridin-7-yl] methanol], the figure is 101 nM. As for `C[C@@H](Nc1cc(CO)cc2ncnn12)c1ccc(OC(F)(F)F)cc1` [Example 271, [5-({(1R)-1-[4-(Trifluoromethoxy)phenyl]ethyl}amino)[1,2,4]triazolo[1,5-a]pyridin-7-yl] methanol], the figure is 530 nM.
